Like-named read-outs stand apart in the source and are kept apart here. Marks after values point to notes of the source that are not given here.
Experiments:
[1] = target: T1, 5-HT reuptake by brain synapses (Rattus norvegicus, UniProt P31652); test: [3H]5-HT reuptake test in rat brain synapses; type: biochemical; settings: for inhibition at 10 µM: final concentration 10 umol/L, rat brain synapses, read-out: 5-HTU [3H] 5-HT reuptake inhibition percentage Mean
T1 construct: forehead cortex was obtained for [^3H]5-HT, [^3H]NA reuptake test; from tissue; host or cells: rat (SD) forebrain cortex synaptosomes
Method: The method was as follows:
Male SD rats were killed by cervical dislocation, heads were immediately cut and brains were obtained and put on ice, related brain tissues were dissected (forehead cortex was obtained for [^3H]5-HT, [^3H]NA reuptake test, corpus striatum was obtained for [^3H]DA reuptake).
After the sample was weighed, 10 folds (V/W) ice cold 0.32 mol/L sucrose solution was added.
According to [a. […] 5-HT was added and after incubation in water bath at 37° C. for 10 min, the reaction mixture was immediately taken out of the water bath and 2 ml ice cold 150 mmol/L Tris-HCl was added to terminate the reaction. The sample was collected on a round glass fiber filter by vacuum filtration and washed three times with 3 ml ice cold Tris-HCl buffer. The filter membrane was removed, dried in a far-infrared oven for 15 min, then transferred into a EP tube, in which 1.5 ml scintillation fluid was added, left overnight and detected by a scintillation counter. The test sample was not added into solvent controlled overall binding tube or non-specific binding tube. 50 μl solvent was added into the overall binding tube, and in [^3H] 5-HT reuptake test, 600 μmol/L cocaine was added into the non-specific binding tube.

[2] = target: opioid receptor subtype κ (Homo sapiens, UniProt P41145); test: Competitive binding to opioid receptor subtype κ, [3H]Diprenorphine; settings: tested concentration 10^−5 mol/L; read-out: κ inhibition percentage of competitive binding
Method: (§1) The respective test compounds were added to the sample tube (final concentration of 10^−5M), incubated at 37° C. for 30 min and placed in ice bath to terminate the reaction. The reaction mixture was filtered through GF/C (Whatman) glass fiber filter by vacuum filtration on a Millipore sample collector. The filter was washed three times with 50 mM Tris-HCl (pH7.4), each with 4 ml; dried and transferred into a 0.5 ml Eppendorf tube, in which 0.5 ml lipophilic scintillation fluid was added. Radioactivity was detected by a LS6500 scintillation counter. Each concentration had three duplicate test tubes and each separate test was repeated 3 to 4 times.
(§2) Specific binding CMP value for each sample tube=overall binding CPM value for each sample tube−CPM value of non-specific binding tube.
(§3) [Inhibition percentage of competitive binding between the test compound and different opioid receptor subtypes (%)=(100%−specific binding (CPM value)of sample tube/specific binding(CPM value)of solvent group×100%)]
(§4) Average was taken for each test drug from three duplicate tubes; each test was repeated two or more times.

[3] = target: opioid receptor subtype δ (Homo sapiens, UniProt P41143); test: Competitive binding to opioid receptor subtype δ, [3H]Diprenorphine; settings: tested concentration 10^−5 mol/L; read-out: δ inhibition percentage of competitive binding
Method: as §1, §2, §3
Average was taken for each test drug from three duplicate tubes; each test was repeated two or more times. Data were presented as mean±SE and statistical comparison was made by ANOVA.

Kunming mice [4] = test: Acetic acid-induced abdominal writhing test in mice; type: in vivo
Method: Kunming mice, SPF KM mice purchased from […] SLAC LABORATORY ANIMAL CO. LTD and kept in normal environment.
The compounds were dissolved in water for injection at a concentration of 4 mg/ml, 2 mg/ml and 1 mg/ml and were given intragastrically to animals.
(§5) Three different doses (10, 20, and 40 mg/kg) were administered to the test groups.
Aspirin was used as a positive control and acetic acid writhing test was used.
30 mice (half male and half female) weighing 18-23 g were divided into five groups, including negative control group, positive control group, low dose group, medium dose group and high dose group:
Mice in test group received test drug (10 mg/kg, 20 mg/kg, 40 mg/kg) via intragastric administration. Negative control group received physiological saline (20 ml/kg) via oral administration. Positive control group received aspirin (200 mg/kg) via oral administration. One hour later, each group received 0.7% acetic acid 10 ml/kg intraperitoneally. Five minutes later, the number of writhes was counted within the subsequent 15 min period; inhibition percentage of writhing response in each test group was calculated by the following equation: […]

[5] = target: opioid receptor subtype μ (Homo sapiens, UniProt P35372); test: Competitive binding to opioid receptor subtype μ, [3H]Diprenorphine; settings: tested concentration 10^−5 mol/L; read-out: μ inhibition percentage of competitive binding
Method: as §1, §2, §3, §4

mice = test: Sedative effects in mice (spontaneous activities); type: in vivo; design: unit not given here; settings: single dose 20 mg/kg
Method: Spontaneous activities of the mice were recorded by alternating current tube, Sedative effects were tested after single dose (20 mg/kg).

5-HT2A receptor = target: T2, 5-HT2A receptor (Homo sapiens, UniProt P28223); test: In-vitro competitive binding to 5-HT2A receptor, [3H]-Ketanserin, transformed HEK293 cells; settings: for IC50 / Ki: affinity to 5-HT2A receptor, concentration gradient test; for inhibition at 10 µM: read-out: 5-HT2A [3H]-Ketanserin inhibition percentage
T2 construct: expressed in transfected cells; host or cells: HEK293
Method: All test samples were dissolved in DMSO at a concentration of 0.01 mol/L, and then diluted with deionized water to 100 umol/L.
HEK293 cells were transformed with plasmid carriers containing the gene coding for 5-HT2A receptor protein by using calcium phosphate transformation. Stable cell strains which could stably express 5-HT2A receptor protein were obtained from the transformed cells by cultivating in a culture media containing G418, selecting monoclones of the cell and performing radioactive ligand binding assay.
Beckman LS 6500 Scintillation Counter.
HEK-293 cells were infected with recombined viruses containing various genes described above. […] Cells were centrifuged at 1000 rpm for 5 min Culture media was discarded, and cell bodies were collected and stored at −20° C. in a freezer. The cell bodies were resuspended with Tris-HCl reaction buffer during assay.
After incubation at 37° C. for 15 min, the reaction mixture was immediately transferred into ice bath to terminate the reaction; the reaction mixture was quickly filtered through GF/C glass cellulose filter on a Millipore cell sample collector, and was then washed with eluting solution (50 mM Tris-HCl, PH 7.7, 3 ml×3) and dried in a microwave for 8-9 min. The filter was transferred into a 0.5 ml centrifuge tube, and 500 μl lipid soluble scintillation fluid was added. The centrifuge tube was allowed to stand in darkness for more than 30 min. Radioactivity was determined by counting Inhibition percentage of each compound on isotope ligand binding was calculated according to the following equation:
inhibition percentage(I %)=cpm of overall binding tube−cpm of compound/cpm of overall binding tube−cpm of nonspecific binding tube×100%.
Each compound was tested in two duplicate test tubes and two separate tests were performed.

Kunming mice [6] = test: Hot-plate test in mice; type: in vivo; settings: 1 h post dose
Method: Kunming mice, SPF KM mice were purchased from […] SLAC LABORATORY ANIMAL CO. LTD and kept in normal environment.
The compounds were dissolved in water for injection at a concentration of 4 mg/ml, 2 mg/ml and 1 mg/ml and were given subcutaneously to animals.
as §5
Morphine was used as a positive control and hot plate test was used.
30-40 mice (half male and half female) weighed from 18 to 23 gram were used. First, each mouse was placed on a hot plat at 55° C. to determine basic pain threshold for 2-3 times. Those animals with basic pain threshold of 5-30 s were qualified, unqualified mice were not used. 30 qualified mice were divided into five groups, including negative control group, positive control group, low-dose group, medium-dose group and high-dose group:
Mice in test groups received test sample solution (10 mg/kg, 20 mg/kg, 40 mg/kg) via subcutaneous injection in the neck. Positive control group received subcutaneous injection of morphine (2 mg/kg). One hour later, pain threshold values were determined for mice in each group as post-drug pain threshold. Percentage increase in pain threshold was calculated according to the following equation: […]

[7] = 10 mg/kg intragastric administration
[8] = 20 mg/kg intragastric administration
[9] = 40 mg/kg intragastric administration

SMILES | inhibitory activity on 5-HT reuptake (in words) ([1]; at 10 μmol/L, compared with Dutoxetine) | inhibition at 10 µM [1] [%] | inhibition at 10 µM [2] [%] | inhibition at 10 µM [3] [%] | Inhibition percentage of writhing response (Kunming mice [4]; [7]) | Inhibition percentage of writhing response (Kunming mice [4]; [8]) | Inhibition percentage of writhing response (Kunming mice [4]; [9]) | inhibition at 10 µM [5] [%] | Sedative effect (mice) | IC50 (5-HT2A receptor) [nM] | Ki (5-HT2A receptor) [nM] | inhibitory activity on 5-HT2A (in words) (5-HT2A receptor; compared with Aripiprazole) | inhibition at 10 µM (5-HT2A receptor; final concentration 10 umol/L) [%] | Percentage increase in pain threshold (Kunming mice [6]; 10 mg/kg S.c.) | Percentage increase in pain threshold (Kunming mice [6]; 20 mg/kg S.c.) | Percentage increase in pain threshold (Kunming mice [6]; 40 mg/kg S.c.) | inhibition at 10 µM (5-HT2A receptor) [%] | Percentage increase in pain threshold (Kunming mice [6]; positive control, 2 mg/kg S.c., hot plate 55° C.)
N#Cc1ccc2cnn(CCCCN3CCC(c4noc5cc(F)ccc45)CC3)c2c1 [II-14, 1-(4-(4-(6-fluorobenzo[d]isoxazol-3-yl)piperidin-1-yl)butyl)-1H-indazole-6-carbonitrile] | potent inhibitory activities | 88.3 | 7 ± 0.6 | 0 | 77.70* % | 69.03% | 85.66** % | 41.9 ± 0.5 | 20 | 3.09 | 2.06 | potent inhibitory activities | 99.7 | – | – | – | – | –
Fc1ccc2c(C3CCN(CCCCn4cnc5ccc(F)cc54)CC3)noc2c1 [III-2, 6-fluoro-3-(1-(4-(6-fluoro-1H-benzo[d]imidazol-1-yl)butyl)piperidin-4-yl)benzo[d]isoxazole] | – | 86 | 44.1 ± 0.2 | 0 | 97.61* % | 100.0** % | 100.0** % | 59.3 ± 0.7 | 64** | 3.99 | 2.69 | – | 99.1 | 92.55* % | 172.2* % | 97.22% | – | –
Fc1ccc2c(C3CCN(CCCOn4nnc5ccc(Cl)cc54)CC3)noc2c1 [IV-4, 3-(1-(3-(6-chloro-1H-benzo[d][1,2,3]triazol-1-yloxy)propyl)piperidin-4-yl)-6-fluorobenzo[d]isoxazole] | – | – | 37.3 ± 1.7 | 0 | 88.33% | 99.44% | 97.78% | 34.3 ± 1.3 | 70.8* | – | – | – | – | 51.63% | 79.36* % | 89.96* % | 97.4 | –
CN1CC[C@]23c4c5ccc(O)c4O[C@H]2[C@@H](O)C=C[C@H]3[C@H]1C5 [Morphine, reference compound] | – | – | – | – | – | – | – | – | – | – | – | – | – | – | – | – | – | 202.5** %
